Source: patent US8012959B2, “Diaminopyrimidinecarboxamide derivative” (Astellas Pharma Inc., priority 2002, dated 2011)

Assays:
T cells = test: Th2 differentiation (IL-4 production by differentiated mouse spleen T cells, ELISA); format: cell-based; conditions: inhibition of Th2 differentiation (IL-4 production, ELISA), C57BL/6 mouse spleen T cells
Method: Measurement of Th2 Differentiation
T cells were prepared by removing nylon wool (Wako Pure Chemical Industries)-adhering cells from C57BL/6 mouse (Charles River Japan) spleen cells. Using a 96 well plate to which an anti-CD3ε antibody (10 μg/ml) (Sederlane) had been immobilized in advance, T cells (2×10^5 cells/0.2 ml) were inoculated under stimulation with anti-CD28 antibody (1 μg/ml) (Pharmingen), IL-2 (10 ng/ml) (Peprotech) and IL-4 (10 ng/ml) (Peprotech). After 2 days of the culturing, total volume of the cell suspension was diluted to 2 ml with a medium containing IL-2 (10 ng/ml) and IL-4 (10 ng/ml). The differentiation was induced by further carrying out the culturing for 3 days. By counting the cell density, the cells after differentiation were adjusted to 1×10^6 cells/ml and inoculated into a 96 well plate immobilized with the anti-CD3 ε antibody, in order to induce IL-4 production. The supernatant after 24 hours of the stimulation was recovered, and the IL-4 production was determined by an ELISA method. The antibody used in the ELISA was purchased from Pharmingen. Also, an HRPO-labeled streptoavidin (Amersham Pharmacia) was used in the detection of biotinylated antibody, and a peroxidase color developing reagent (Sumitomo Bakelite) was used in the HRPO color development. In the case of the evaluation of compounds, compound dilutions were added to the wells before the addition of T cells, at the time of the dilution 2 days later, compounds equivalent to the initial concentration were added. Also, regarding the dilution of compounds, dilution was carried out using 10% FBS-containing RPMI 1640 such that the final concentration of DMSO in which each compound was dissolved became 0.1% or less. Inhibitory activity of each tested compound was evaluated in which the IL-4 production when DMSO was added instead of the compound was regarded as 100%, and the IL-4 production when anti-CD28 antibody and IL-4 were not added as 0%.

STAT 6 = target: T1, STAT 6 (Mus musculus, UniProt P52633); test: STAT 6-dependent reporter activity (IL-4-stimulated CI/FW4 luciferase reporter cell); format: cell-based, human
T1 construct: An STAT 6 reporter cell CI/FW4 was constructed by the above operation; endogenous in cells; host or cells: CI/FW4 (FW4 cell stably carrying the pGL2-CI/bs luciferase reporter)
T1 sequence (P52633 1-837): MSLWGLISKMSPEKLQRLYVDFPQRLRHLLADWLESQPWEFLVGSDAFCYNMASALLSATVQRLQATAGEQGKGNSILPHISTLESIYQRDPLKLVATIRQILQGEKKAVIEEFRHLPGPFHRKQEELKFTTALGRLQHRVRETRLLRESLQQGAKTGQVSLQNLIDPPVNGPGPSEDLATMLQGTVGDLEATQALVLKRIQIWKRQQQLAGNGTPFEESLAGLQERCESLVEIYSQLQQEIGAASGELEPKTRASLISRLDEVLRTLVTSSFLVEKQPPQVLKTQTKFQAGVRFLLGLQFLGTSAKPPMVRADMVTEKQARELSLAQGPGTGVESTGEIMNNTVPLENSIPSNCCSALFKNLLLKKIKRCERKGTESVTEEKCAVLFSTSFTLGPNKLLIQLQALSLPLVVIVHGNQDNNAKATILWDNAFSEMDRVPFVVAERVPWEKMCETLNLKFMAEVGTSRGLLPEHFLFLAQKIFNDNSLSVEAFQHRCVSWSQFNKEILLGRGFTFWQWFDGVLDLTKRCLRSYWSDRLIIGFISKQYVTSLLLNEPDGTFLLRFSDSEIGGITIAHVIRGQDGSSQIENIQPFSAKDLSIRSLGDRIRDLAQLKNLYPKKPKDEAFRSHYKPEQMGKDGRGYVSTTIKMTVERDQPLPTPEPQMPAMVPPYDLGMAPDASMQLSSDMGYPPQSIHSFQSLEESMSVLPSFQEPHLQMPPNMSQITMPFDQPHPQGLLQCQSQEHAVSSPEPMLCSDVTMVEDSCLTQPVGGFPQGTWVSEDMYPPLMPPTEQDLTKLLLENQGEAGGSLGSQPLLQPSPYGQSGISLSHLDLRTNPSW
Method: Measurement of STAT 6-Dependent Reporter Activity 1) Construction of STAT 6 Reactive Reporter Plasmid A STAT 6 reporter plasmid pGL2-CI was prepared by the following method. […] Also, […] sequence DNA molecules (SEQ ID NOs:3 and 4) contained in the adenovirus major late promoter were annealed and inserted into BglII and HindIII sites of the same vector. Thereafter, pGL2-CI/bs was constructed by inserting the blasticidin resistance gene of pUCSV-BD (Funakoshi) into BamHI site of the constructed pGL2-CI. 2) Construction of STAT 6 Reporter Cell Gene transfer of […] into a human IL-4 reactive cell FW4 cell (Mol. Cell. Biol., 14: 5433-5440) was carried out by the electroporation method (320 V, 960 μF/0.4 cm cuvette (Nippon Bio-Rad Laboratories)), and 6 μg/ml of blasticidin (Funakoshi) was added 40 hours thereafter to select a resistant cell. Confirmation of constant transfer of the reporter plasmid was carried out by detecting luciferase induce by IL-4 stimulation. An STAT 6 reporter cell CI/FW4 was constructed by the above operation. 3) STAT Reporter Assay Using CI/FW4 Cell Stimulation of the CI/FW4 cell (1×10^4 cells/0.1 ml) with 10 ng/ml of human IL-4 (Genzyme Techne) was carried out using a white 96 well plate (Nunc). In the case of the evaluation of compounds, compound dilutions were added to the wells before inoculating the cells into the 96 well plate. […] Thereafter, 50 μl of a luciferase substrate solution (10 mM Tris-HCl pH 7.8, 5 mM luciferin, 2 mM coenzyme A, 2 mM ATP, 0.5 mM MgCl2 and 2 mM Mg(OH)2) was added, followed by stirring for 1 minute. Then, the luciferase activity was measured using ML3000 luminometer (Dynatech Laboratories, Inc). Inhibitory activities of tested compounds were evaluated in which the luminescence intensity (relative light unit: […] The results are shown in the following Table 26.

## Cc1cccc(Nc2nc(N[C@@H]3CCCC[C@@H]3N)ncc2C(N)=O)c1 (relative stereo) [ref 2, 2-(cis-2-aminocyclohexylamino)-4-(3-methylanilino)pyrimidine-5-carboxamide, reference compound]
T cells
  Inh (%): 0%

## NC(=O)c1cnc(NCCc2ccc(O)c(Cl)c2)nc1NCc1ccccc1 [Example 1, 4-benzylamino-2-{[2-(3-chloro-4-hydroxyphenyl)ethyl]amino}pyrimidine-5-carboxamide]
STAT 6; inhibition ratio at 0.1 μM compound, IL-4-stimulated CI/FW4 cell, luciferase
  inhibition at 0.1 µM: 89%
STAT 6; inhibition ratio at 1 μM compound, IL-4-stimulated CI/FW4 cell, luciferase
  inhibition at 1 µM: 100%
T cells
  Inh (%): 88%

## NC(=O)c1cnc(NCCc2cc(Cl)c(O)c(Cl)c2)nc1NCc1ccccc1 [Example 16]
STAT 6; CI/FW4 cell, 10 ng/ml human IL-4, luciferase
  inhibition of STAT 6-dependent reporter activity (activity similar to the compounds of Table 26): good activity
T cells
  Inh (%): 82%

## Cc1cccc(Nc2nc(NCCN)ncc2C(N)=O)c1 [ref 1, 2-(2-aminoethylamino)-4-(3-methylanilino)pyrimidine-5-carboxamide, reference compound]
T cells
  Inh (%): 0%
